Measured values: US10124035B2, “DISC-1 pathway activators in the control of neurogenesis” (Massachusetts Institute of Technology, priority 2008, dated 2018)
Entries after “also recorded” stand apart in the source; their conditions may differ.

Tests used:
[1] = tested on: DISC1 knockdown AHP cells; assay: BrdU incorporation in DISC1 knockdown progenitor cells; assay type: cell-based; details: SB-216763 5 μM for 16 hours, 10 μM BrdU for 2 hours
Procedure: Primary neural stem cells from E14 brains were infected with control or DISC1 shRNA lentiviruses. 48 hours after to transduction, cells were treated with vehicle or SB-216763 (5 μM) for 16 hours and then pulsed with 10 μM BrdU for 2 hours. Shown is percentage of GFP and BrdU double positive cells to total GFP positive cells (n=3, p<0.05). b. […] 1.5 μg of vector or WT-DISC1 was cotransfected with 0.5 μg control or DISC1 shRNA-2, 0.1 μg TCF reporter, and 10 ng pRL-TK vector into 293T cells. 48 hours after transfection, Wnt3a conditional medium with vehicle, SB-216763, or AR-A104418 was added for another 16 hours.
If DISC1 functions to inhibit GSK3β activity, the negative effects of DISC1 silencing on proliferation should be alleviated by GSK3β loss-of-function. We examined the consequence of treating DISC1 knockdown AHP cells with SB-216763, a specific chemical inhibitor of GSK3β. […] These experiments further support a role of DISC1 in controlling cell proliferation via modulation of GSK3β.

AHPs = assay: Immunoblot of β-catenin and cyclin D1 in transduced AHPs; assay type: cell-based
Excerpt: • Mice. Swiss Webster pregnant female mice were purchased from Taconic (Hudson, N.Y.). • Cell Culture. AHPs were kindly provided by Dr. Gage (Lie, D. C. et al. Wnt signaling to regulates adult hippocampal neurogenesis. Nature 437, 1370-5 (2005)) and cultured under conditions described previously (Palmer, T. D., Takahashi, J. & Gage, F. H. The adult rat hippocampus contains primordial neural stem cells. Mol Cell Neurosci 8, 389-404 (1997)). Primary neural progenitors were isolated from E14 mouse embryos and cultured as described previously (Sanada, K. & Tsai, L. H. G protein betagamma subunits and AGS3 control spindle orientation and asymmetric cell fate of cerebral cortical progenitors. Cell 122, 119-31 (2005)). N2a and 293T cells were cultured in DMEM medium containing 10% FBS, L-glutamine, and penicillin/streptomycin. Wnt3a expressing L cells and untransfected L cells were obtained from ATCC (Manassas, Va.). Wnt3a conditional medium was produced according to the ATCC protocol. To induce AHP differentiation, FGF2 was removed from the culture medium and 1 μM retinoic acid/1% FBS was added to the medium for 4 days. • Reagents. Recombinant Wnt3a protein was obtained from Chemicon (Rosemont, Ill.). FGF2 was obtained from PeproTech (Rocky Hill, N.J.). Recombinant GST-GSK3β was obtained from Active Motif (Carlsbad, Calif.). Recombinant GST-β-catenin and GST-axin were obtained from Millipore (Billerica, Mass.). The GSK313 inhibitor, SB-216763, AR-A104418 and His-GSK3β, were obtained from Sigma-Aldrich (Sigma-Aldrich, St. Louis, Mo.). L803-MTS was obtained from Calbiochem (San Diego, Calif.). GST-AKT1 was obtained from Cell Signaling (Beverly, Mass.). GST-CASK-1 (CASK fragment from 316-415aa), GST-CASK-2 (CASK fragment from 777-974aa), and GST-p25 proteins were kindly provided by Dr. B. A. Samuels. Mouse DISC1 peptidel (40-78aa: GYMRSTAGSG IGFLSPAVGMPHPSSAG LTGQQSQHSQS; SEQ ID NO: 1) and Mouse DISC1 peptide 2 (195-238aa, […] GERGEAEGCLPSREAE; SEQ ID NO: 2) were synthesized by Chi Scientific (Maynard, Mass.). • Antibodies. […]

Row | Compound | cell proliferation by BrdU incorporation in DISC1 knockdown cells [1] | reduction of Cyclin D1 levels (AHPs) | β-catenin levels (AHPs)
1 | Cn1cc(C2=C(c3ccc(Cl)cc3Cl)C(=O)NC2=O)c2ccccc21 [SB-216763] | restored the cell proliferation impaired by DISC1 knockdown; also recorded: can rescue DISC-1 knockdown-induced proliferation defects |  | 
2 | DISC1 shRNA-1: shRNA targeting rat and mouse DISC1, SEQ ID NO:4, in pLentiLox 3.7 vector (GGCAAACACTGTGAAGTGC) |  | 50% | 35 % to control
